Common to all, as to assay type: in vivo
Assay [1] concerns Puccinia triticina. As to the kind of experiment: Wheat brown rust (PUCCRT) disease control on wheat seedlings. The settings on record: for pest or weed control at 121.5 g/ha: Low volume application; for pest or weed control at 100 ppm: High volume application. In outline: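 Yuma wheat seedlings (first leaf emerged) sprayed to run-off with compound in acetone plus nine volumes water containing 110 ppm Triton X-100, or track-sprayed as EC formulations with 0.1% Trycol 5941. Rust spores inoculated before or after treatment; overnight dark dew, 22 °C, 100% RH, then greenhouse at 24 °C.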

Assay [2] relates to Zymoseptoria tritici. Description: Leaf blotch of wheat (SEPTTR) disease control on wheat seedlings. The settings on record: for pest or weed control at 121.5 g/ha: Low volume application; for pest or weed control at 100 ppm: High volume application.
For assay [3], the system named is Rhyncosporium secalis. Description: Barley scald (RHYNSE) disease control on barley seedlings. Particulars: 1DP test at 100 ppm. The protocol:
Technical grades of materials were dissolved in acetone, which were then mixed with nine volumes of water containing 110 ppm Triton X-100. The fungicide solutions were applied onto wheat seedlings using an automated booth sprayer to run-off. All sprayed plants were allowed to air dry prior to further handling. All fungicides were evaluated using the aforementioned method for their activity vs. all target diseases, unless stated otherwise. Wheat leaf blotch and brown rust activity were also evaluated using track spray applications, in which case the fungicides were formulated as EC formulations, containing 0.1% Trycol 5941 in the spray solutions. Example J: Evaluation of Fungicidal Activity: Barley Scald (Rhyncosporium secalis; Bayer Code […]) Barley seedlings (variety Harrington) were propagated in soil-less Metro mix, with each pot having 8 to 12 plants, and used in the test when first leaf was fully emerged. Test plants were inoculated by an aqueous spore suspension of Rhyncosporium secalis 24 hr after fungicide treatments. After inoculation the plants were kept in a dew room at 20° C. with 100% relative humidity for 48 hr. The plants were then transferred to a greenhouse set at 20° C. for disease to develop. Fungicide formulation, application and disease assessment on the sprayed leaves followed the procedures as described in the Example A.

In assay [4] the test system is Phakopsora pachyrhizi. As to the kind of experiment: Asian soybean rust (PHAKPA) disease control on soybean seedlings. Particulars: Phakopsora pachyrhizi, High volume application at 25 ppm. In outline:
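Compounds in acetone diluted with nine volumes of water containing 0.011% Tween 20, sprayed to run-off on two-week-old Williams 82 soybean seedlings; inoculation 3 days before or 1 day after treatment. Plants held 24 h in dark dew room at 22° C, 100% RH, then at 23° C; disease severity scored on sprayed leaves.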

Assay [5] concerns Uncinula necator. Description: Grape powdery mildew (UNCINE) disease control on grape seedlings. Particulars: 1DP test at 100 ppm. The protocol: Technical grades of materials were dissolved in acetone, which were then mixed with nine volumes of water containing 110 ppm Triton X-100. The fungicide solutions were applied onto wheat seedlings using an automated booth sprayer to run-off. All sprayed plants were allowed to air dry prior to further handling. All fungicides were evaluated using the aforementioned method for their activity vs. all target diseases, unless stated otherwise. Wheat leaf blotch and brown rust activity were also evaluated using track spray applications, in which case the fungicides were formulated as EC formulations, containing 0.1% Trycol 5941 in the spray solutions. Example K: Evaluation of Fungicidal Activity: Grape Powdery Mildew (Uncinula necator; Bayer Code […]) Grape seedlings (variety Carignane) were grown in soil-less Metro mix, with one plant per pot, and used in the test when approximately 1 month old. Plants were inoculated 24 hr after fungicide treatment by shaking spores from infected leaves over test plants. Plants were maintained in a greenhouse set at 20° C. until disease was fully developed. Fungicide formulation, application and disease assessment on sprayed leaves followed the procedures as described in the Example A.

Assay [6] deals with Pseudoperonospora cubensis. Description: Cucumber downy mildew (PSPECU) disease control on cucumber seedlings. The settings on record: 1DP test at 100 ppm. The protocol: Technical grades of materials were dissolved in acetone, which were then mixed with nine volumes of water containing 110 ppm Triton X-100. The fungicide solutions were applied onto wheat seedlings using an automated booth sprayer to run-off. All sprayed plants were allowed to air dry prior to further handling. All fungicides were evaluated using the aforementioned method for their activity vs. all target diseases, unless stated otherwise. Wheat leaf blotch and brown rust activity were also evaluated using track spray applications, in which case the fungicides were formulated as EC formulations, containing 0.1% Trycol 5941 in the spray solutions. Example H: Evaluation of Fungicidal Activity: Cucumber Downy Mildew (Pseudoperonospora cubensis; Bayer Code […]) Cucumber seedlings (variety Bush Pickle) were grown in soil-less Metro mix, with one plant per pot, and used in the test when 12 to 14 days old. Plants were inoculated with a spore suspension 24 hr following fungicide treatments. […] After inoculation the plants were kept in a dew room at 22° C. with 100% relative humidity for 24 hr to permit spores to germinate and infect the leaf. The plants were then transferred to a greenhouse set at 20° C. until disease was fully expressed. […]

The test system of assay [7] is Alternaria solani. As to the kind of experiment: Tomato early blight (ALTESO) disease control on tomato plants. The settings on record: 1DP test at 100 ppm. The protocol: Technical grades of materials were dissolved in acetone, which were then mixed with nine volumes of water containing 110 ppm Triton X-100. The fungicide solutions were applied onto wheat seedlings using an automated booth sprayer to run-off. All sprayed plants were allowed to air dry prior to further handling. All fungicides were evaluated using the aforementioned method for their activity vs. all target diseases, unless stated otherwise. Wheat leaf blotch and brown rust activity were also evaluated using track spray applications, in which case the fungicides were formulated as EC formulations, containing 0.1% Trycol 5941 in the spray solutions. Example D: Evaluation of Fungicidal Activity: Tomato Early Blight (Alternaria solani; Bayer Code […]) Tomato plants (variety Outdoor Girl) were propagated in soil-less Metro mix, with each pot having one plant, and used when 12 to 14 days old. Test plants were inoculated with an aqueous spore suspension of Alternaria solani 24 hr after fungicide treatments. After inoculation the plants were kept in 100% relative humidity (one day in a dark dew chamber followed by two to three days in a lighted dew chamber at 20° C.) to permit spores to germinate and infect the leaf. The plants were then transferred to a growth room at 22° C. for disease to develop. […]

[8] abbreviates: 24 h, 1 Day Protectant, read-out: PUCCRT disease control rating, 1DP.
[9] abbreviates: 72 h, 3 Day Curative, read-out: PUCCRT disease control rating, 3DC.
Where [10] appears, read: 24 h, 1 Day Protectant, read-out: SEPTTR disease control rating, 1DP.
[11] abbreviates: 72 h, 3 Day Curative, read-out: SEPTTR disease control rating, 3DC.
Setting [12] is: 24 h, 1 day protectant, read-out: PHAKPA 1DP (1 Day Protectant) disease control.
The mark [13] stands for this setting: 72 h, 3 day curative, read-out: PHAKPA 3DC (3 Day Curative) disease control.

Read-outs that look alike come from different tables or passages of the source.

For the molecule `COc1ccnc(C(=O)N[C@@H](C)C(=O)O[C@H](C)[C@H](C)c2ccccc2C)c1OC(C)=O` [Example 263], the pest or weed control at 121.5 g/ha in assay [1] (setting [8]), in assay [1] (setting [9]), in assay [2] (setting [10]) and in assay [2] (setting [11]) was less than 80% in each case. Moreover, the “RHYNSE disease control rating” value in assay [3] was “B (≤80)”. Besides, the pest or weed control at 25 ppm in assay [4] (setting [12]) was greater than 80%; in assay [4] (setting [13]) it was less than 80%.
Turning to `COc1ccnc(C(=O)N[C@@H](C)C(=O)O[C@@H](C)[C@@H](C)c2ccccc2C)c1OC(C)=O` [Example 264], the pest or weed control at 121.5 g/ha was greater than 80% in assay [1] (setting [8]), greater than 80% in assay [1] (setting [9]), less than 80% in assay [2] (setting [10]) and less than 80% in assay [2] (setting [11]). The “UNCINE disease control rating” value in assay [5] is given as “A (>80)”. The “PSPECU disease control rating” value in assay [6] is given as “B (≤80)”. For the same molecule, the pest or weed control at 25 ppm in assay [4] (setting [12]) and in assay [4] (setting [13]) was greater than 80% each time. The “ALTESO disease control rating” value in assay [7] is on record as “B (≤80)”.
Regarding `COc1cc[n+]([O-])c(C(=O)N[C@@H](C)C(=O)O[C@@H](C)[C@@H](C)c2ccccc2)c1O` [Example 276], the pest or weed control at 100 ppm in assay [1] (setting [8]) was greater than 80%; in assay [1] (setting [9]), less than 80%; in assay [2] (setting [10]), less than 80%; in assay [2] (setting [11]) it was less than 80%. In addition, the pest or weed control at 121.5 g/ha in assay [1] (setting [8]), in assay [1] (setting [9]), in assay [2] (setting [10]) and in assay [2] (setting [11]) was less than 80% throughout. The pest or weed control at 25 ppm in assay [4] (setting [12]) was less than 0%; in assay [4] (setting [13]), less than 80%.
As for `COc1cc(F)ccc1[C@@H](C)[C@@H](C)OC(=O)[C@H](C)NC(=O)c1c(O)c(OC)cc[n+]1[O-]` [Example 277], the pest or weed control at 100 ppm in assay [1] (setting [8]) was less than 80%; in assay [1] (setting [9]), less than 0%; in assay [2] (setting [10]), less than 80%; in assay [2] (setting [11]), less than 80%. Moreover, the pest or weed control at 121.5 g/ha is less than 0% in assay [1] (setting [8]), less than 80% in assay [1] (setting [9]), less than 80% in assay [2] (setting [10]) and less than 80% in assay [2] (setting [11]). Moreover, the pest or weed control at 25 ppm in assay [4] (setting [12]) and in assay [4] (setting [13]) was less than 80% in each case.

The record behind these values is patent publication US20200399222A1, “PICOLINAMIDES AS FUNGICIDES” (Dow AgroSciences LLC, priority 2018, published 2020).
